# Measured values as given in ChEMBL document CHEMBL1201862, “PubChem BioAssay data set” (2004).
#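 Five compound concentrations were applied to cells in 96-well plates for 48 hours; endpoints were derived by simple linear interpolation of the resulting dose-response curve. At the GI50, growth is halved.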 Activity calls are given as the source filed them. No stated cut-off is given here; in the data, active = GI50 up to about 1.1 µM and inactive = higher.
# Assays:
# Experiment in all cases: inhibition of tumour cell growth, NCI panel, 48 h
# [1] = system: 786-0
# [2] = system: A498
# [3] = system: A549
# [4] = system: ACHN
# [5] = system: CAKI-1
# [6] = system: CCRF-CEM
# [7] = system: DU-145
# [8] = system: EKVX
# [9] = system: HCC 2998
# [10] = system: HCT-116
# [11] = system: HCT-15
# [12] = system: HL-60
# [13] = system: HOP-62
# [14] = system: HOP-92
# [15] = system: HT-29
# [16] = system: Hs-578T
# [17] = system: IGROV-1
# [18] = system: K562
# [19] = system: KM12
# [20] = system: LOX IMVI
# [21] = system: M14
# [22] = system: MCF7
# [23] = system: MDA-MB-231
# [24] = system: MDA-MB-435
# [25] = system: MDA-N
# [26] = system: MOLT-4
# [27] = system: Malme-3M
# [28] = system: NCI-H226
# [29] = system: NCI-H23
# [30] = system: NCI-H460
# [31] = system: NCI-H522
# [32] = system: NCI/ADR-RES
# [33] = system: OVCAR-3
# [34] = system: OVCAR-4
# [35] = system: OVCAR-5
# [36] = system: OVCAR-8
# [37] = system: PC-3
# [38] = system: RPMI-8226
# [39] = system: RXF 393
# [40] = system: SF-268
# [41] = system: SF-295
# [42] = system: SF-539
# [43] = system: SK-MEL-28
# [44] = system: SK-MEL-5
# [45] = system: SN12C
# [46] = system: SNB-19
# [47] = system: SNB-75
# [48] = system: SR
# [49] = system: SW-620
# [50] = system: T47D
# [51] = system: TK-10
# [52] = system: U-251
# [53] = system: UACC-257
# [54] = system: UACC-62
# [55] = system: UO-31
# [56] = system: COLO 205
# [57] = system: SK-MEL-2
# [58] = system: SK-OV-3
compound,measurement,setting,value
COC(=O)c1c(C)cccc1C1CN=NC12Cc1ccc(C)cc1C2=O (stereo unspecified),GI50,[1],71.3 µM (inactive)
same,GI50,[2],43.6 µM (inactive)
same,GI50,[3],33.5 µM (inactive)
same,GI50,[4],26.9 µM (inactive)
same,GI50,[5],> 100 µM (inactive)
same,GI50,[6],32.4 µM (inactive)
same,GI50,[7],49 µM (inactive)
same,GI50,[8],26.7 µM (inactive)
same,GI50,[9],40.9 µM (inactive)
same,GI50,[10],25 µM (inactive)
same,GI50,[11],50.2 µM
same,GI50,[12],21.6 µM (inactive)
same,GI50,[13],52.7 µM (inactive)
same,GI50,[14],23.8 µM (inactive)
same,GI50,[15],31.8 µM (inactive)
same,GI50,[16],39.4 µM (inactive)
same,GI50,[17],52 µM (inactive)
same,GI50,[18],29.8 µM (inactive)
same,GI50,[19],47.9 µM (inactive)
same,GI50,[20],28.6 µM (inactive)
same,GI50,[21],38.8 µM (inactive)
same,GI50,[22],37.2 µM (inactive)
same,GI50,[23],47.1 µM (inactive)
same,GI50,[24],32.7 µM (inactive)
same,GI50,[25],41.4 µM (inactive)
same,GI50,[26],27.4 µM (inactive)
same,GI50,[27],33.2 µM (inactive)
same,GI50,[28],44.4 µM (inactive)
same,GI50,[29],39.2 µM (inactive)
same,GI50,[30],15 µM (inactive)
same,GI50,[31],29.4 µM (inactive)
same,GI50,[32],23 µM (inactive)
same,GI50,[33],38.6 µM (inactive)
same,GI50,[34],48.8 µM (inactive)
same,GI50,[35],> 100 µM (inactive)
same,GI50,[36],43.2 µM (inactive)
same,GI50,[37],39.2 µM (inactive)
same,GI50,[38],25.6 µM (inactive)
same,GI50,[39],75.9 µM (inactive)
same,GI50,[40],50.7 µM (inactive)
same,GI50,[41],65.9 µM (inactive)
same,GI50,[42],47 µM (inactive)
same,GI50,[43],43.4 µM (inactive)
same,GI50,[44],17.5 µM (inactive)
same,GI50,[45],48.4 µM (inactive)
same,GI50,[46],38.1 µM (inactive)
same,GI50,[47],57.5 µM (inactive)
same,GI50,[48],40.2 µM (inactive)
same,GI50,[49],41 µM (inactive)
same,GI50,[50],17.1 µM (inactive)
same,GI50,[51],> 100 µM (inactive)
same,GI50,[52],41.9 µM (inactive)
same,GI50,[53],49.1 µM (inactive)
same,GI50,[54],32.6 µM (inactive)
same,GI50,[55],36.1 µM (inactive)
CCCc1cc(O)c2c(C)c3[nH]c4ccc(Cl)cc4c3c(C)c2n1,GI50,[1],1.61 µM (inactive)
same,GI50,[2],1.49 µM (inactive)
same,GI50,[3],2.24 µM (inactive)
same,GI50,[4],1.91 µM (inactive)
same,GI50,[5],2 µM (inactive)
same,GI50,[6],2.07 µM (inactive)
same,GI50,[56],2 µM (inactive)
same,GI50,[7],6.3 µM (inactive)
same,GI50,[8],2.44 µM (inactive)
same,GI50,[9],1.62 µM (inactive)
same,GI50,[10],1.63 µM (inactive)
same,GI50,[11],1.69 µM
same,GI50,[12],1.67 µM (inactive)
same,GI50,[13],2.2 µM (inactive)
same,GI50,[14],2.31 µM (inactive)
same,GI50,[15],1.77 µM (inactive)
same,GI50,[16],9.57 µM (inactive)
same,GI50,[17],2.13 µM (inactive)
same,GI50,[19],3.48 µM (inactive)
same,GI50,[20],1.82 µM (inactive)
same,GI50,[21],3.1 µM (inactive)
same,GI50,[22],1.83 µM (inactive)
same,GI50,[23],1.85 µM (inactive)
same,GI50,[24],1.6 µM (inactive)
same,GI50,[25],1.9 µM (inactive)
same,GI50,[26],2.81 µM (inactive)
same,GI50,[27],10.7 µM (inactive)
same,GI50,[28],2.81 µM (inactive)
same,GI50,[29],2.91 µM (inactive)
same,GI50,[30],1.97 µM (inactive)
same,GI50,[31],1.87 µM (inactive)
same,GI50,[32],3.21 µM (inactive)
same,GI50,[34],1.86 µM (inactive)
same,GI50,[35],2.46 µM (inactive)
same,GI50,[36],2.55 µM (inactive)
same,GI50,[37],4.06 µM (inactive)
same,GI50,[39],1.51 µM (inactive)
same,GI50,[40],6.71 µM (inactive)
same,GI50,[41],2.36 µM (inactive)
same,GI50,[42],1.92 µM (inactive)
same,GI50,[43],1.46 µM (inactive)
same,GI50,[57],3.57 µM (inactive)
same,GI50,[44],9.68 µM (inactive)
same,GI50,[45],2.36 µM (inactive)
same,GI50,[46],2.55 µM (inactive)
same,GI50,[47],2.9 µM (inactive)
same,GI50,[48],1.88 µM (inactive)
same,GI50,[49],1.63 µM (inactive)
same,GI50,[50],1.85 µM (inactive)
same,GI50,[51],1.94 µM (inactive)
same,GI50,[52],1.69 µM (inactive)
same,GI50,[53],2 µM (inactive)
same,GI50,[55],1.75 µM (inactive)
O=C1NC(c2cccc3ccccc23)Nc2ccc(Cl)cc21 (stereo unspecified),GI50,[1],0.00193 µM (active)
same,GI50,[2],0.00143 µM (active)
same,GI50,[3],0.00509 µM (active)
same,GI50,[4],0.00268 µM (active)
same,GI50,[5],0.00118 µM (active)
same,GI50,[6],0.000618 µM (active)
same,GI50,[56],0.00239 µM (active)
same,GI50,[7],0.00452 µM (active)
same,GI50,[8],0.00235 µM (active)
same,GI50,[9],0.0105 µM (active)
same,GI50,[10],0.000912 µM (active)
same,GI50,[11],0.0018 µM
same,GI50,[12],0.000133 µM (active)
same,GI50,[13],0.00261 µM (active)
same,GI50,[15],0.00166 µM (active)
same,GI50,[16],0.000624 µM (active)
same,GI50,[17],0.0181 µM (active)
same,GI50,[18],< 0.0001 µM (active)
same,GI50,[19],0.0022 µM (active)
same,GI50,[20],0.000482 µM (active)
same,GI50,[21],0.00115 µM (active)
same,GI50,[22],0.0741 µM (active)
same,GI50,[23],0.00838 µM (active)
same,GI50,[24],< 0.0001 µM (active)
same,GI50,[25],< 0.0001 µM (active)
same,GI50,[26],0.00174 µM (active)
same,GI50,[27],0.00176 µM (active)
same,GI50,[28],0.00432 µM (active)
same,GI50,[29],0.0579 µM (active)
same,GI50,[30],0.0038 µM (active)
same,GI50,[31],0.000546 µM (active)
same,GI50,[32],0.00111 µM (active)
same,GI50,[33],0.0016 µM (active)
same,GI50,[34],0.327 µM (active)
same,GI50,[35],0.0244 µM (active)
same,GI50,[36],0.00935 µM (active)
same,GI50,[37],0.00165 µM (active)
same,GI50,[39],0.00394 µM (active)
same,GI50,[40],0.0035 µM (active)
same,GI50,[41],0.000516 µM (active)
same,GI50,[42],< 0.01 µM (active)
same,GI50,[43],< 0.01 µM (active)
same,GI50,[57],0.00204 µM (active)
same,GI50,[44],0.00106 µM (active)
same,GI50,[58],0.00105 µM (active)
same,GI50,[45],0.00828 µM (active)
same,GI50,[46],0.00189 µM (active)
same,GI50,[47],0.000164 µM (active)
same,GI50,[48],0.000229 µM (active)
same,GI50,[49],0.00168 µM (active)
same,GI50,[50],20.5 µM (inactive)
same,GI50,[52],0.000977 µM (active)
same,GI50,[54],0.000214 µM (active)
same,GI50,[55],0.00319 µM (active)
c1ccc2c(c1)c1c(n2CCOCCN2CCCC2)CCCC1,GI50,[1],16.1 µM (inactive)
same,GI50,[3],28.1 µM (inactive)
same,GI50,[4],20.1 µM (inactive)
same,GI50,[5],27.2 µM (inactive)
same,GI50,[6],20.9 µM (inactive)
same,GI50,[56],19.5 µM (inactive)
same,GI50,[7],30.3 µM (inactive)
same,GI50,[8],25.9 µM (inactive)
same,GI50,[9],16.6 µM (inactive)
same,GI50,[10],17.1 µM (inactive)
same,GI50,[11],17 µM
same,GI50,[12],12.2 µM (inactive)
same,GI50,[13],15.5 µM (inactive)
same,GI50,[14],27.7 µM (inactive)
same,GI50,[15],20 µM (inactive)
same,GI50,[16],14.9 µM (inactive)
same,GI50,[17],23.7 µM (inactive)
same,GI50,[18],15 µM (inactive)
same,GI50,[19],> 10 µM (inactive)
same,GI50,[20],18.5 µM (inactive)
same,GI50,[21],15.6 µM (inactive)
same,GI50,[22],16 µM (inactive)
same,GI50,[23],16.4 µM (inactive)
same,GI50,[24],18.9 µM (inactive)
same,GI50,[25],19.4 µM (inactive)
same,GI50,[26],16.7 µM (inactive)
same,GI50,[27],17.1 µM (inactive)
same,GI50,[28],22.4 µM (inactive)
same,GI50,[29],22.6 µM (inactive)
same,GI50,[30],15 µM (inactive)
same,GI50,[32],19 µM (inactive)
same,GI50,[33],25.4 µM (inactive)
same,GI50,[34],16.8 µM (inactive)
same,GI50,[35],17.8 µM (inactive)
same,GI50,[36],22.4 µM (inactive)
same,GI50,[37],18.6 µM (inactive)
same,GI50,[38],18.2 µM (inactive)
same,GI50,[40],29 µM (inactive)
same,GI50,[41],37.2 µM (inactive)
same,GI50,[42],14.5 µM (inactive)
same,GI50,[43],16 µM (inactive)
same,GI50,[57],16.4 µM (inactive)
same,GI50,[44],15.2 µM (inactive)
same,GI50,[58],31.3 µM (inactive)
same,GI50,[45],17.5 µM (inactive)
same,GI50,[47],27.3 µM (inactive)
same,GI50,[48],17.2 µM (inactive)
same,GI50,[49],16.2 µM (inactive)
same,GI50,[50],28.7 µM (inactive)
same,GI50,[51],19.5 µM (inactive)
same,GI50,[52],13.1 µM (inactive)
same,GI50,[53],22.4 µM (inactive)
same,GI50,[54],18.6 µM (inactive)
same,GI50,[55],12.8 µM (inactive)
